Measured values from patent US20060189650A1, “Novel piperidine derivatives as modulators of chemokine receptor ccr5” (priority 2002, published 2006).

These molecules were tested against recombinant human CCR5 receptor (Homo sapiens, UniProt P51681) (assay: MIP-1α radioligand binding assay (scintillation proximity, CHO cell membranes)). Settings: negative log (base 10) of IC50, displacement of 0.1 nM iodinated MIP-1α; average if tested more than once.
Protocol: The ability of compounds to inhibit the binding of MIP-1α was assessed by an in vitro radioligand binding assay. Membranes were prepared from Chinese hamster ovary cells which expressed the recombinant human CCR5 receptor. These membranes were incubated with 0.1 nM iodinated MIP-1α, scintillation proximity beads and various concentrations of the compounds of the invention in 96-well plates. The amount of iodinated MIP-1α bound to the receptor was determined by scintillation counting. Competition curves were obtained for compounds and the concentration of compound which displaced 50% of bound iodinated MIP-1α was calculated (IC50).
In Table XV the results are presented as Pic50 values. A Pic50 value is the negative log (to base 10) of the IC50 result, so an IC50 of 1 μM (that is 1×10^−6M) gives a Pic50 of 6. If a compound was tested more than once then the data below is an average of the probative tests results.

Chain of recombinant human CCR5 receptor (P51681 whole entry): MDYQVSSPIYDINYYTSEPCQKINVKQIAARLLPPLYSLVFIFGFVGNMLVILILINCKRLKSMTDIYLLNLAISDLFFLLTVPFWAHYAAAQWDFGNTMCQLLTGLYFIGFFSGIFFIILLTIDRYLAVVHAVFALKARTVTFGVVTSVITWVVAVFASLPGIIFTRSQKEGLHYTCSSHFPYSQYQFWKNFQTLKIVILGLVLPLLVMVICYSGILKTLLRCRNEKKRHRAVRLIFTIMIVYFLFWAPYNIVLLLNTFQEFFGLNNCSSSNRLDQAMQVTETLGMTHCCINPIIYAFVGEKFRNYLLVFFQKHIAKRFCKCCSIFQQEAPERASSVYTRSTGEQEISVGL

IC50 [nM] | SMILES
1.58 | CS(=O)(=O)c1ccc(S(=O)(=O)CCC2CCN(CC[C@H](NC(=O)c3ccc(Cl)cc3)c3ccccc3)CC2)cc1 [Table IV Compound 2]
2 | Cn1nnc(-c2ccc(S(=O)(=O)CCC3CCN(CC[C@H](c4ccc(S(C)(=O)=O)cc4)c4cc(F)cc(F)c4)CC3)cc2)n1 [Table V Compound 19, 1-{(3R)-3-(3,5-difluorophenyl)-3-[4-(methylsulfonyl)phenyl]propyl}-4-(2-{[4-(2-methyl-2H-tetrazol-5-yl)phenyl]sulfonyl}ethyl)piperidine]
0.631 | CS(=O)(=O)c1ccc([C@@H](CCN2CCC(CCS(=O)(=O)c3ccc(S(C)(=O)=O)cc3)CC2)c2cc(F)cc(F)c2)cc1 [Table V Compound 7, 1-{(3R)-3-(3,5-difluorophenyl)-3-[4-(methylsulfonyl)phenyl]propyl}-4-(2-{[4-(methylsulfonyl)phenyl]sulfonyl}ethyl)piperidine]
